Columns and labels:
S. aureus Newman [1] = assay: fitness (endpoint OD595 vs no drug) (fraction); higher = more growth
How it was run: (§1)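 Fitness is computed from the optical density at which cultures reach stationary phase, divided by the robust mean of no-drug control wells. Any value above 1 is set to 1. Cultures started at OD595 0.01 in 384-well plates with TSB, LB Lennox or CY at 37 °C, and OD595 was read every 30 min for 14 h against a first-reading background.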

S. pneumoniae D39V [2] = assay: as above
How it was run: as §1

S. aureus DSM 20231 [3] = assay: as above
How it was run: as §1

S. aureus Newman [4] = assay: Bliss interaction score (quartile over a dose matrix) (fitness difference); higher = more antagonism (negative = synergy)
How it was run: (§2)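 The Bliss score was calculated by subtracting the expected fitness, the product of single-drug values, from the observed fitness. OD595 at entry into stationary phase, over the plate's robust no-drug mean and capped at 1, served as the fitness readout. Single-drug values were inferred from combination data, and scores are summarised by quartiles across technical, biological and donor/recipient replicates.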

S. pneumoniae D39V [5] = assay: as above
How it was run: as §2

B. subtilis 168 = assay: as above
How it was run: as §2

S. aureus DSM 20231 [6] = assay: as above
How it was run: as §2
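Wherever Bliss interaction score (quartile over a dose matrix) is given: first quartile when negative (synergy) and third quartile when positive (antagonism).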

CC1(C)S[C@@H]2[C@H](NC(=O)[C@H](N)c3ccc(O)cc3)C(=O)N2[C@H]1C(=O)O [Amoxicillin] + C[n+]1ccc(-c2cc[n+](C)cc2)cc1 [Paraquat]
Settings	fitness
S. aureus DSM 20231 [3], first compound 0.0625 µg/mL, partner 1.25 µg/mL	0.512
S. aureus DSM 20231 [3], first compound 0.0625 µg/mL, partner 2.5 µg/mL	0.517
S. aureus DSM 20231 [3], first compound 0.0625 µg/mL, partner 5 µg/mL	0.488
S. aureus DSM 20231 [3], first compound 0.125 µg/mL, partner 1.25 µg/mL	0.433
S. aureus DSM 20231 [3], first compound 0.125 µg/mL, partner 2.5 µg/mL	0.498
S. aureus DSM 20231 [3], first compound 0.125 µg/mL, partner 5 µg/mL	0.431
S. aureus DSM 20231 [3], first compound 0.25 µg/mL, partner 2.5 µg/mL	0.0563
S. aureus DSM 20231 [3], first compound 0.25 µg/mL, partner 5 µg/mL	0.0722
S. aureus Newman [1], first compound 0.0625 µg/mL, partner 1.25 µg/mL	0.89
S. aureus Newman [1], first compound 0.0625 µg/mL, partner 2.5 µg/mL	0.87
S. aureus Newman [1], first compound 0.0625 µg/mL, partner 5 µg/mL	0.86
S. aureus Newman [1], first compound 0.125 µg/mL, partner 1.25 µg/mL	0.861
S. aureus Newman [1], first compound 0.125 µg/mL, partner 2.5 µg/mL	0.885
S. aureus Newman [1], first compound 0.125 µg/mL, partner 5 µg/mL	0.838
S. aureus Newman [1], first compound 0.25 µg/mL, partner 5 µg/mL	0.829
S. pneumoniae D39V [2], first compound 0.0008 µg/mL, partner 1.5 µg/mL	≥ 1
S. pneumoniae D39V [2], first compound 0.0008 µg/mL, partner 3 µg/mL	0.961
S. pneumoniae D39V [2], first compound 0.0008 µg/mL, partner 6 µg/mL	0.921
S. pneumoniae D39V [2], first compound 0.0015 µg/mL, partner 1.5 µg/mL	0.988
S. pneumoniae D39V [2], first compound 0.0015 µg/mL, partner 3 µg/mL	0.939
S. pneumoniae D39V [2], first compound 0.0015 µg/mL, partner 6 µg/mL	0.913
S. pneumoniae D39V [2], first compound 0.003 µg/mL, partner 1.5 µg/mL	0.96
S. pneumoniae D39V [2], first compound 0.003 µg/mL, partner 3 µg/mL	0.847
S. pneumoniae D39V [2], first compound 0.003 µg/mL, partner 6 µg/mL	0.864

fitness, one replicate
Settings	partner 1.25 µg/mL	partner 1.5 µg/mL	partner 2.5 µg/mL	partner 3 µg/mL	partner 5 µg/mL	partner 6 µg/mL
S. aureus DSM 20231 [3], first compound 0.5 µg/mL	0.0127	–	0.0289	–	0.0485	–
S. pneumoniae D39V [2], first compound 0.006 µg/mL	–	0.542	–	0.561	–	0.422

Settings	Bliss interaction score
B. subtilis 168	-0.061
S. aureus DSM 20231 [6]	0.0506
S. aureus Newman [4]	0.0578
S. pneumoniae D39V [5]	-0.0705

CO/N=C(\C(=O)N[C@@H]1C(=O)N2C(C(=O)[O-])=C(C[N+]3(C)CCCC3)CS[C@H]12)c1csc(N)n1 [Cefepime] + Cc1ncc([N+](=O)[O-])n1CCO [Metronidazole]
Settings	fitness
S. aureus DSM 20231 [3], first compound 0.125 µg/mL, partner 0.625 µg/mL	0.981
S. aureus DSM 20231 [3], first compound 0.125 µg/mL, partner 1.25 µg/mL	≥ 1
S. aureus DSM 20231 [3], first compound 0.125 µg/mL, partner 2.5 µg/mL	≥ 1
S. aureus DSM 20231 [3], first compound 0.25 µg/mL, partner 0.625 µg/mL	0.958
S. aureus DSM 20231 [3], first compound 0.25 µg/mL, partner 1.25 µg/mL	≥ 1
S. aureus DSM 20231 [3], first compound 0.25 µg/mL, partner 2.5 µg/mL	≥ 1
S. aureus DSM 20231 [3], first compound 0.5 µg/mL, partner 0.625 µg/mL	0.925
S. aureus DSM 20231 [3], first compound 0.5 µg/mL, partner 1.25 µg/mL	0.958
S. aureus DSM 20231 [3], first compound 0.5 µg/mL, partner 2.5 µg/mL	0.928
S. aureus Newman [1], first compound 0.125 µg/mL, partner 0.625 µg/mL	0.942
S. aureus Newman [1], first compound 0.125 µg/mL, partner 0.781 µg/mL	0.957
S. aureus Newman [1], first compound 0.125 µg/mL, partner 1.25 µg/mL	0.922
S. aureus Newman [1], first compound 0.125 µg/mL, partner 1.562 µg/mL	0.914
S. aureus Newman [1], first compound 0.125 µg/mL, partner 2.5 µg/mL	0.957
S. aureus Newman [1], first compound 0.125 µg/mL, partner 3.124 µg/mL	0.924
S. aureus Newman [1], first compound 0.25 µg/mL, partner 0.625 µg/mL	0.855
S. aureus Newman [1], first compound 0.25 µg/mL, partner 0.781 µg/mL	0.854
S. aureus Newman [1], first compound 0.25 µg/mL, partner 1.25 µg/mL	0.876
S. aureus Newman [1], first compound 0.25 µg/mL, partner 1.562 µg/mL	0.844
S. aureus Newman [1], first compound 0.25 µg/mL, partner 2.5 µg/mL	0.814
S. aureus Newman [1], first compound 0.25 µg/mL, partner 3.124 µg/mL	0.83
S. aureus Newman [1], first compound 0.5 µg/mL, partner 0.625 µg/mL	0.799
S. aureus Newman [1], first compound 0.5 µg/mL, partner 0.781 µg/mL	0.761
S. aureus Newman [1], first compound 0.5 µg/mL, partner 1.25 µg/mL	0.752
S. aureus Newman [1], first compound 0.5 µg/mL, partner 1.562 µg/mL	0.731
S. aureus Newman [1], first compound 0.5 µg/mL, partner 2.5 µg/mL	0.749
S. aureus Newman [1], first compound 0.5 µg/mL, partner 3.124 µg/mL	0.764
S. pneumoniae D39V [2], first compound 0.007 µg/mL, partner 1.25 µg/mL	≥ 1
S. pneumoniae D39V [2], first compound 0.007 µg/mL, partner 2.5 µg/mL	≥ 1
S. pneumoniae D39V [2], first compound 0.007 µg/mL, partner 5 µg/mL	≥ 1
S. pneumoniae D39V [2], first compound 0.0078 µg/mL, partner 1.073 µg/mL	0.998
S. pneumoniae D39V [2], first compound 0.0078 µg/mL, partner 2.145 µg/mL	0.943
S. pneumoniae D39V [2], first compound 0.0078 µg/mL, partner 4.29 µg/mL	0.988
S. pneumoniae D39V [2], first compound 0.014 µg/mL, partner 1.25 µg/mL	≥ 1
S. pneumoniae D39V [2], first compound 0.014 µg/mL, partner 2.5 µg/mL	≥ 1
S. pneumoniae D39V [2], first compound 0.014 µg/mL, partner 5 µg/mL	≥ 1
S. pneumoniae D39V [2], first compound 0.0155 µg/mL, partner 1.073 µg/mL	0.977
S. pneumoniae D39V [2], first compound 0.0155 µg/mL, partner 4.29 µg/mL	0.968
S. pneumoniae D39V [2], first compound 0.028 µg/mL, partner 1.25 µg/mL	0.957
S. pneumoniae D39V [2], first compound 0.028 µg/mL, partner 2.5 µg/mL	0.964
S. pneumoniae D39V [2], first compound 0.028 µg/mL, partner 5 µg/mL	0.912
S. pneumoniae D39V [2], first compound 0.031 µg/mL, partner 1.073 µg/mL	0.939
S. pneumoniae D39V [2], first compound 0.031 µg/mL, partner 2.145 µg/mL	0.9
S. pneumoniae D39V [2], first compound 0.031 µg/mL, partner 4.29 µg/mL	0.942

Settings	Bliss interaction score
B. subtilis 168	0.0894
S. aureus DSM 20231 [6]	0.047
S. aureus Newman [4]	-0.0502
S. pneumoniae D39V [5]	0.0181

CC1(C)S[C@@H]2[C@H](NC(=O)[C@H](N)c3ccc(O)cc3)C(=O)N2[C@H]1C(=O)O [Amoxicillin] + COc1cccc2c1C(=O)c1c(O)c3c(c(O)c1C2=O)C[C@@](O)(C(=O)CO)C[C@@H]3O[C@H]1C[C@H](N)[C@H](O)[C@H](C)O1 [Doxorubicin]
Settings	fitness
S. aureus DSM 20231 [3], first compound 0.0625 µg/mL, partner 0.625 µg/mL	0.541
S. aureus DSM 20231 [3], first compound 0.0625 µg/mL, partner 1.25 µg/mL	0.511
S. aureus DSM 20231 [3], first compound 0.0625 µg/mL, partner 2.5 µg/mL	0.493
S. aureus DSM 20231 [3], first compound 0.125 µg/mL, partner 0.625 µg/mL	0.443
S. aureus DSM 20231 [3], first compound 0.125 µg/mL, partner 1.25 µg/mL	0.423
S. aureus DSM 20231 [3], first compound 0.125 µg/mL, partner 2.5 µg/mL	0.461
S. aureus DSM 20231 [3], first compound 0.25 µg/mL, partner 0.625 µg/mL	0.187
S. aureus DSM 20231 [3], first compound 0.5 µg/mL, partner 0.625 µg/mL	0.0064
S. aureus DSM 20231 [3], first compound 0.5 µg/mL, partner 1.25 µg/mL	0
S. aureus DSM 20231 [3], first compound 0.5 µg/mL, partner 2.5 µg/mL	0.012
S. aureus Newman [1], first compound 0.0625 µg/mL, partner 0.625 µg/mL	0.756
S. aureus Newman [1], first compound 0.0625 µg/mL, partner 1.25 µg/mL	0.738
S. aureus Newman [1], first compound 0.0625 µg/mL, partner 2.5 µg/mL	0.686
S. aureus Newman [1], first compound 0.125 µg/mL, partner 0.625 µg/mL	0.774
S. aureus Newman [1], first compound 0.125 µg/mL, partner 1.25 µg/mL	0.742
S. aureus Newman [1], first compound 0.125 µg/mL, partner 2.5 µg/mL	0.79
S. aureus Newman [1], first compound 0.25 µg/mL, partner 0.625 µg/mL	0.729
S. aureus Newman [1], first compound 0.25 µg/mL, partner 1.25 µg/mL	0.735
S. aureus Newman [1], first compound 0.25 µg/mL, partner 2.5 µg/mL	0.712
S. pneumoniae D39V [2], first compound 0.0008 µg/mL, partner 0.25 µg/mL	0.961
S. pneumoniae D39V [2], first compound 0.0008 µg/mL, partner 0.5 µg/mL	0.941
S. pneumoniae D39V [2], first compound 0.0008 µg/mL, partner 1 µg/mL	0.882
S. pneumoniae D39V [2], first compound 0.0015 µg/mL, partner 0.25 µg/mL	0.892
S. pneumoniae D39V [2], first compound 0.0015 µg/mL, partner 0.5 µg/mL	0.855
S. pneumoniae D39V [2], first compound 0.0015 µg/mL, partner 1 µg/mL	0.921
S. pneumoniae D39V [2], first compound 0.003 µg/mL, partner 0.25 µg/mL	0.838
S. pneumoniae D39V [2], first compound 0.003 µg/mL, partner 0.5 µg/mL	0.837
S. pneumoniae D39V [2], first compound 0.003 µg/mL, partner 1 µg/mL	0.788

S. pneumoniae D39V [2], first compound 0.006 µg/mL, one replicate
Settings	fitness
partner 0.25 µg/mL	0.317
partner 0.5 µg/mL	0.314
partner 1 µg/mL	0.399

Settings	Bliss interaction score
B. subtilis 168	0.0583
S. aureus DSM 20231 [6]	0.0943
S. aureus Newman [4]	-0.0449
S. pneumoniae D39V [5]	-0.071

Reference: the supplement of paper PMC10627819
